Measured values published in patent US7144880B2, “Compositions relating to novel compounds and targets thereof” (Regents of the University of Michigan, priority 2003, dated 2006).

Tested on: B cells
Assay: Collapse of mitochondrial ΔΨm detected with DiOC6(3)
Format: cell-based
Settings: by 5 hours
Description: To detect O2^−, cells are incubated with DHE (10 μM) for 30 min at 37° C. and are analyzed by flow cytometry to measure ethidium fluorescence. Flow analysis of mitochondrial transmembrane potential (ψm) is conducted by labeling cells with DiOC6(3) (20 nM) for 15 min at 37 degrees C. A positive control for disruption of ψm is established using carbonyl cyanide m-chlorophenylhydrazone (CCCP, 50 μM). Caspase activation assays are performed with FAM-VAD-fluoromethylketone. Processing of the substrate is evaluated by flow cytometry.
To characterize the death mechanism engaged by Bz-423, intracellular ROS, ΔΨm, cytochrome c release, caspase activation, and DNA fragmentation were measured over time (the results presented are for B cells but do characterize the response in many different cell types). The first event detected after exposure to Bz-423 is an increase in the fraction of cells that stain with dihyroethedium (DHE), a redox-sensitive agent that reacts specifically with O2^−.
Collapse of ΔΨm was detected using DiOC6(3), a mitochondria-selective potentiometric probe.

CN1C(=O)C(Cc2ccc3ccccc3c2)N=C(c2ccc(O)cc2)c2cc(Cl)ccc21 (stereo not shown) [Bz-423]
Cells with collapse of ΔΨm: > 90%
